Marks after values point to notes of the source that are not given here.
Key:
[1] = target: T1, rat mGlu1a receptor (Rattus norvegicus, UniProt P23385); assay: [3H]Compound A binding to rat mGlu1a receptor CHO-dhfr− membranes (saturation, kinetics, inhibition); details: for observed association rate constant (kob): 2.5 nM radioligand
T1 construct: host or cells: CHO-dhfr- cells

[2] = target: T2, rat mGlu4 receptor (Rattus norvegicus, UniProt P31423); assay: [3H]Compound A binding to membranes from CHO-dhfr− cells expressing the rat mGlu4 receptor; details: 20 nM [3H]Compound A, 40 μg membranes
T2 construct: host or cells: CHO-dhfr- cells
T2 sequence (P31423 33-912): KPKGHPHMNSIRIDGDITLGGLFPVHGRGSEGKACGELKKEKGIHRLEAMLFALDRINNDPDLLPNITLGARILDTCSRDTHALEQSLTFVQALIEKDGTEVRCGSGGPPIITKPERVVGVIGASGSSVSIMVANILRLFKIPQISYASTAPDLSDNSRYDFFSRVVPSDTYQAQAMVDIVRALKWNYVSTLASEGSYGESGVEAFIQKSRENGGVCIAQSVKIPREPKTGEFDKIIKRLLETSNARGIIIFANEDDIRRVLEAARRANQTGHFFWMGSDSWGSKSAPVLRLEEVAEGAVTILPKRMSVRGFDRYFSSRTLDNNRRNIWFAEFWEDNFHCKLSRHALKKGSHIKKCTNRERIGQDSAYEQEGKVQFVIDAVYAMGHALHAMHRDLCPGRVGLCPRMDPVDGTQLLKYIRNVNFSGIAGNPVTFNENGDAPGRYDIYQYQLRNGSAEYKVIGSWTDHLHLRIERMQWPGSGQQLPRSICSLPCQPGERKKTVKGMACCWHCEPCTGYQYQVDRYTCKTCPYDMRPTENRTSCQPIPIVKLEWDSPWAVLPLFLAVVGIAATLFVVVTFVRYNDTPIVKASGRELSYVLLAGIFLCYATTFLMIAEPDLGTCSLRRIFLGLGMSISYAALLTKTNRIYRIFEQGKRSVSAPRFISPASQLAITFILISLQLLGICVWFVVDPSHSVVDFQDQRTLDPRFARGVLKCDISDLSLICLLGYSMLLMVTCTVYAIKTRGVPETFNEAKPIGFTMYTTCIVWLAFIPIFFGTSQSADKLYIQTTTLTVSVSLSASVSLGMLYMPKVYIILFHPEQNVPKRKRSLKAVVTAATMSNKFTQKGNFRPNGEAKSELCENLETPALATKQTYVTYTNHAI
Protocol: (§1) Confluent cells were washed in ice-cold phosphate-buffered saline and stored at −20° C. until membrane preparation. After thawing, cells were suspended in 50 mM Tris-HCl, pH 7.4 and collected through centrifugation for 10 min at 23,500 g at 4° C. The cells were lysed in 10 mM hypotonic Tris-HCl, pH 7.4. After recentrifugation for 20 min at 30,000 g at 4° C., the pellet was homogenized with an Ultra Turrax homogenizer in 50 mM Tris-HCl, pH 7.4. Protein concentrations were measured by the Bio-Rad protein assay using bovine serum albumin as standard.
(§2) After thawing, the membranes were homogenized using an Ultra Turrax homogenizer and suspended in ice-cold binding buffer containing 50 mM Tris-HCl (pH 7.4), 1.2 mM MgCl2, 2 mM CaCl2. For [^3H]Compound A binding, 20 to 160 μg membrane protein and a final concentration of 20 nM [^3H]Compound A was used. As indicated in the results section, different blancs were used to define non-specific binding. Incubation time and temperature as well as filtration were as described for rat mGlu1a receptor CHO-dhfr^− membranes. Expression of rat mGlu2, -3, -5 and mGlu6 receptors was confirmed by specific binding of [^3H]LY341495 (mGlu2, -3 and -6) or [^3H]MPEP (mGlu5). For [^3H]LY341495 binding, 1 nM (mGlu2 and mGlu3) or 10 nM (mGlu6) [^3H]LY341495 was used. […] Assay mixtures were incubated for 30 min (mGlu2 and mGlu3) or 60 min (mGlu6) at 4° C. […]

[3] = target: T3, rat mGlu5 receptor (Rattus norvegicus, UniProt P31424); assay: [3H]Compound A binding to membranes from CHO-dhfr− cells expressing the rat mGlu5 receptor; details: 20 nM [3H]Compound A, 40 μg membranes; Compound 135 as blanc
T3 construct: host or cells: CHO-dhfr- cells
T3 sequence (P31424 21-1203): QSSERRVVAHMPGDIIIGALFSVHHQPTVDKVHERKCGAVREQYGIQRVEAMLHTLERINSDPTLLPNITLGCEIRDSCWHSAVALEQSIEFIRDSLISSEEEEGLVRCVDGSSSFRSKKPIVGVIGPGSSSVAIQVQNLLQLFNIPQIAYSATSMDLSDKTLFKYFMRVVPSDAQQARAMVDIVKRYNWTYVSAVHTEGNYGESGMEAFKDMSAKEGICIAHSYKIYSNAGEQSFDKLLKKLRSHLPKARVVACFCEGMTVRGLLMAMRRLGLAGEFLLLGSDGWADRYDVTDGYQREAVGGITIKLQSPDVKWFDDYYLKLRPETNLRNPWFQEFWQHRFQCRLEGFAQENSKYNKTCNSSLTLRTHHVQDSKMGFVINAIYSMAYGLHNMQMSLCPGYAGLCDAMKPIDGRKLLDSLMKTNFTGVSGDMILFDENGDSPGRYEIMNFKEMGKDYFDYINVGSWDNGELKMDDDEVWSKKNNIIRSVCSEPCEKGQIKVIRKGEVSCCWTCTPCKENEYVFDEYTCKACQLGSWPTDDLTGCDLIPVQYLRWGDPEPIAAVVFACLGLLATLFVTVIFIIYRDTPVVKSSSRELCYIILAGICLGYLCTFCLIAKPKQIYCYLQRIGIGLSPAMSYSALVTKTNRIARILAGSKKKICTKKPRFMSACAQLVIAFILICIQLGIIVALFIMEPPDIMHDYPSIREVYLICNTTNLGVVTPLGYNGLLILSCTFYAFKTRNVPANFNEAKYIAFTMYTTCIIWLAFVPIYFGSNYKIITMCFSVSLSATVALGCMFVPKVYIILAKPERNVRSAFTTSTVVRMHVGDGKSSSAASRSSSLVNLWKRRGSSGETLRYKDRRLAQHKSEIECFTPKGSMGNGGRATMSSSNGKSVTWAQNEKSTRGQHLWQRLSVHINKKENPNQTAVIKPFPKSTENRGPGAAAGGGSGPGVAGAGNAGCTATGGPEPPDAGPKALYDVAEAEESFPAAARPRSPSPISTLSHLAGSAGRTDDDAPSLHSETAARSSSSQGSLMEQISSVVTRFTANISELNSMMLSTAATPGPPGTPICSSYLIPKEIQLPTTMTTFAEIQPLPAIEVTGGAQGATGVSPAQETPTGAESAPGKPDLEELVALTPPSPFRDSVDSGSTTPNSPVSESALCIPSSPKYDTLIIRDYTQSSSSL
Protocol: as §1, §2

[4] = target: T4, rat mGlu6 receptor (Rattus norvegicus, UniProt P35349); assay: [3H]Compound A binding to membranes from CHO-dhfr− cells expressing the rat mGlu6 receptor; details: 20 nM [3H]Compound A, 40 μg membranes; Compound 135 as blanc
T4 construct: host or cells: CHO-dhfr- cells
T4 sequence (P35349 24-871): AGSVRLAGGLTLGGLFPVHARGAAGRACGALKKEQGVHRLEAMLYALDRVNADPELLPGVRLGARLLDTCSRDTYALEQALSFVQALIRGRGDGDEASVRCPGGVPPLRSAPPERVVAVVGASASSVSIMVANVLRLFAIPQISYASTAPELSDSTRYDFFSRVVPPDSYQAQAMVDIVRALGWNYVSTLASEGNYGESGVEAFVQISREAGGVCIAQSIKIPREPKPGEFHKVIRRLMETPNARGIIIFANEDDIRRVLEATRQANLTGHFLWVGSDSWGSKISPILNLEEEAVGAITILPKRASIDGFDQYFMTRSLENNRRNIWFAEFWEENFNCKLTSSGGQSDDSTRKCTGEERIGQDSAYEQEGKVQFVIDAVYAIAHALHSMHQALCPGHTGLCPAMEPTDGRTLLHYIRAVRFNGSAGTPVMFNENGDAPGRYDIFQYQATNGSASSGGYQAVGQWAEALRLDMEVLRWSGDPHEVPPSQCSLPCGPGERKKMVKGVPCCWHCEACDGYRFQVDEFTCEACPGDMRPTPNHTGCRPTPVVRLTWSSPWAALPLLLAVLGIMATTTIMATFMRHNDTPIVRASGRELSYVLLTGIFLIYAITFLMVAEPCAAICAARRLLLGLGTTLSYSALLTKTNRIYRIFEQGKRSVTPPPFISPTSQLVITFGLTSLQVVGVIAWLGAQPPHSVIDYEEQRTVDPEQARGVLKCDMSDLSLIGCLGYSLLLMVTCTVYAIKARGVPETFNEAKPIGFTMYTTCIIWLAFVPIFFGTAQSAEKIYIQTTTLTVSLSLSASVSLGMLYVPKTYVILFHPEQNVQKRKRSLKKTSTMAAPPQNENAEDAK
Protocol: as §1, §2

[5] = target: mGlu1 receptor (Rattus norvegicus, UniProt P23385); assay: [3H]Compound A binding and autoradiography on rat brain sections
Protocol: Tissue preparation. Male Wistar rats (200 g) were sacrificed by decapitation. Brains were immediately removed from the skull and were rapidly frozen in dry-ice-cooled 2-methylbutane (−40° C.). Brains were then stored at −70° C. until sectioning. Twenty-micrometer-thick sagittal sections were cut using a Leica C3050 cryostat microtome (Leica Microsystems, Wetzlar, Germany) and thaw-mounted on SuperFrost Plus microscope slides (Menzle-glaser, Germany). The sections were then kept at −70° C. until use.
Receptor autoradiography. Sections were thawed and dried under a stream of cold air, preincubated (3×5 min) in 50 mM Tris-HCl, 1.2 mM MgCl2, 2 mM CaCl2, 0.1% BSA pH 7.4 at room temperature. […] After the incubation, the excess of radioligand was washed off (3×5 min) in ice-cold buffer containing 50 mM Tris-HCl, 1.2 mM MgCl2 and 2 mM CaCl2, followed by a rapid dip in cold distilled water. The sections were dried under a stream of cold air and then exposed to [^3H]Hyperfilm (Amersham, UK) for 6 weeks at room temperature. The films were developed manually in Kodak D19 and fixed with Kodak Readymatic. Some sections were exposed to a Fuji Imaging Plate for 2 days at room temperature and scanned using a Fujix Bass 2000 phosphoimager.

[6] = [3H]Compound A saturation binding in presence of BAY 36-7620 (100 nM), mean ± SD, 3 experiments
[7] = [3H]Compound A saturation binding in presence of CPCCOEt (30 μM), mean ± SD, 3 experiments
[8] = [3H]Compound A saturation binding in presence of NPS 2390 (10 nM), mean ± SD, 3 experiments
[9] = [3H]Compound A saturation binding, control (absence of antagonist), mean ± SD, 3 experiments

T1 sequence (P23385 19-1199): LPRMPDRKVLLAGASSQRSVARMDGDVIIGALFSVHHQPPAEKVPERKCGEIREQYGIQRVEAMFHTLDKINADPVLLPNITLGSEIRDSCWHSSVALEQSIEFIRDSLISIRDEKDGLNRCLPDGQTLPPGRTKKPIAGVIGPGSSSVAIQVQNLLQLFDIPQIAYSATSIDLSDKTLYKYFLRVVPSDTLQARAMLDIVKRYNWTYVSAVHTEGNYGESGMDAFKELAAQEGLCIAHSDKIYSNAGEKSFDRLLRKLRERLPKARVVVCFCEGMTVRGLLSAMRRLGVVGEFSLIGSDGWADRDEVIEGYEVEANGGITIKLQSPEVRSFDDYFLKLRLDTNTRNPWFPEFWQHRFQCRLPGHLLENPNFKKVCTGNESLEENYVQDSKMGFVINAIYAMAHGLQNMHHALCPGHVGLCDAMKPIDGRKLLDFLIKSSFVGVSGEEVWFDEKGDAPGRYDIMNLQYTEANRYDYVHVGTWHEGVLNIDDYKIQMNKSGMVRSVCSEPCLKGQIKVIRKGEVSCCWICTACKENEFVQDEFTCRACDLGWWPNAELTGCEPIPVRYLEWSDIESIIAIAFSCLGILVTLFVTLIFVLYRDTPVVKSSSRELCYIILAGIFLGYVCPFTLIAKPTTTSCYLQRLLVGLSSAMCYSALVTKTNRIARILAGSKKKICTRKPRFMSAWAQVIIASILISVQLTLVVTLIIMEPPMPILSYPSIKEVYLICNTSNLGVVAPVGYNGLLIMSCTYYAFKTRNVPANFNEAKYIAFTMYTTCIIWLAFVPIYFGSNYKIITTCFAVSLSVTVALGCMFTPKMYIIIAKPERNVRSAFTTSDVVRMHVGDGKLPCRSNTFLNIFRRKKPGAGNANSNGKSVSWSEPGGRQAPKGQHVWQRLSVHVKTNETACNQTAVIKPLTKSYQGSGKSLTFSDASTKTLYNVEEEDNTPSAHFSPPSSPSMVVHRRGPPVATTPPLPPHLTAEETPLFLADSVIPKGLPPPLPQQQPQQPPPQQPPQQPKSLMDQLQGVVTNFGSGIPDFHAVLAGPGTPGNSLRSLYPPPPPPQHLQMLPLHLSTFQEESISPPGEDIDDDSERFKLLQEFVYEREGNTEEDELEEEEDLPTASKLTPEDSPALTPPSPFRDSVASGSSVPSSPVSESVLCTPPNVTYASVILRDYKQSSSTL

SB (fmoles/mg protein), mGlu1 ([1]; 10 nM [3H]Compound A, 20 μg membranes, Compound 135 as blanc, mean ± SD of 3 experiments): 6057 fmoles/mg protein | specific binding as % of the total binding ([1]; 20 μg protein per assay, non-specific binding with 1 μM compound 135): ~92% | koff ([1]; 4° C.): 0.00208 s⁻¹ | specific binding after 2 min incubation as % of the quantity bound at equilibrium ([1]; 4° C.): about 70% | time to complete displacement after addition of excess compound 135 ([1]; 4° C.): approximately 45 min | observed association rate constant (kob) ([1]; 4° C.): 0.6285 min⁻¹ | kon ([1]; 4° C., read-out: kon (kob−koff/radioligand concentration) (converted)): 1.68e+06 M⁻¹ s⁻¹ | time to dissociation after addition of 1 μM compound 135 ([1]; 25° C.): ≤ 2 min | observed association rate constant (kob) ([1]; 25° C.): 2.571 min⁻¹ | observed association rate constant (kob) ([1]; 37° C.): 1.523 min⁻¹ | Bmax [1, 6]: 5872 ± 1018 fmoles/mg protein | Kd [1, 6]: 5.21 ± 1.2 nM | Bmax [1, 7]: 7009 ± 1231 fmoles/mg protein | Kd [1, 7]: 3.17 ± 0.9 nM | Bmax [1, 8]: 6887 ± 2804 fmoles/mg protein | Kd [1, 8]: 2.9 ± 0.2 nM | Bmax [1, 9]: 7284 ± 970 fmoles/mg protein | Kd [1, 9]: 0.73 ± 0.09 nM | incubation time to maximal binding ([1]; each incubation temperature (4, 25, 37° C.)): ≤ 5 min | decrease of specific binding at pH 6 ([1]; pH 6): 22% | more binding sites labelled than [3H]quisqualate ([1]; rat mGlu1a receptor CHO-dhfr− membranes): ~40% | Kd ([1]; saturation, 30 min incubation, n=3): 0.9 ± 0.14 nM | SB (fmoles/mg protein), mGlu4 ([2]; Compound 135 as blanc): 82 fmoles/mg protein | SB (fmoles/mg protein), mGlu4 ([2]; various blancs: 0.1 mM L-SOP): 57^b fmoles/mg protein | SB (fmoles/mg protein), mGlu5 [3]: 38 fmoles/mg protein | SB (fmoles/mg protein), mGlu6 [4]: 0 fmoles/mg protein | specific binding in autoradiography ([5]; CA3 field and dentate gyrus of hippocampal formation, thalamus, olfactory tubercle, amygdala, substantia nigra reticulata): moderate signal | specific binding in autoradiography ([5]; cerebral cortex, caudate putamen, ventral pallidum, nucleus accumbens): lower labelling | specific binding in autoradiography ([5]; molecular layer of the cerebellum): Very high specific binding
Compound: [3H]c1ccc(CC(=O)c2ccc3nc4c(cc3c2)CCCO4)cc1 [[^3H]Compound A]

From US7517517B2 (Janssen Pharmaceutica N.V., priority 2002, dated 2009)
